Source: patent publication US20180325872A1, “COMPOUNDS FOR TREATMENT OF CANCER” (UNIVERSITY OF TENNESSEE RESEARCH FOUNDATION, priority 2013, published 2018)
Where two headings read alike, the source gives them in different places. One block for each compound: values may come before it.

Assays:
PC-3/TxR tumors = details: PC-3/TxR xenograft, day 1 and 9; for Tumor size, End: end point day 19
PC-3 = assay: Apoptosis (cytoplasmic DNA-histone complex formation) in PC-3; format: cell-based, human; details: PC-3, 0.8 to 600 nmol/L, 24 h
PC-3/TxR = assay: Apoptosis (cytoplasmic DNA-histone complex formation) in PC-3/TxR; format: cell-based, human; details: 0.8 to 600 nmol/L, 24 h
PC-3 tumors = assay: PC-3 xenograft in nude mice; details: day 1 and 9, end point day 19
A375RF21 cells [1] = assay: Cell cycle analysis (flow cytometry) in A375RF21; format: cell-based, human; details: for G2/M arrest: A375RF21, 20 nM
Method: (§1) Flow cytometry analysis was performed as described before (Wang Z, Chen J, Wang J, et al. “Novel tubulin polymerization inhibitors overcome multidrug resistance and reduce melanoma lung metastasis.” Pharm. Res. (2012) 29: 3040-3052). To determine cell cycle distributions in the G2 and M phases (FIG. 23), cells were harvested with trypsin, stained using antiphospho-histone H3-AlexaFluor® 488 antibody on ice for one hour in the dark, followed by stained using PI/RNase solution for 30 minutes at room temperature in the dark per the manufacturer's instructions (#FCCH025103, EMD Millipore Corporation, Ballerica, Mass.). Data were further processed and graphs were prepared using the Modfit 2.0 program (Verity Software House, Topsham, Me.).

A375RF21 cells [2] = assay: Apoptosis detection (Annexin V-FITC / propidium iodide); details: A375RF21, 48 h, Annexin V / propidium iodide flow cytometry
B16-F1 melanoma cells = assay: B16-F1 melanoma colony formation assay in soft agar; format: cell-based, mouse; details: 14 days
Method: B16-F1 melanoma cells were plated at a colony-forming density (2000 cells per well on six-well plates) on top of 0.8% base agar. Cells were grown in 0.4% agar together with DMEM medium supplemented with fetal bovine serum and an antibiotic-antimycotic solution at 37° C. in an atmosphere of 95% air and 5% CO2. […] Compounds were added to the media from 1 mM DMSO stock solutions, and a corresponding dilution of DMSO was used as control. Cells were grown for 14 days. Plates were photographed, and the number of colonies was measured by Artek 880 Automated Colony Counter (Artek Systems Corporation, Farmingdale, N.Y.).

[3] = tested on: A375 human melanoma xenograft; assay: A375 human melanoma xenograft in SHO nude mice; format: in vivo; details: 12fb 25 mg/kg, 31 days
[4] = tested on: melanoma nodules in the lungs; assay: Melanoma lung metastasis model in mice; format: in vivo, mouse; details: i.p. injection 5 days per week for 2 weeks (n=8 per group)
From the text: Panel A: Representative photos of lungs with melanoma nodules (black dots, n=8 per group). Treatment was i.p. injection 5 days per week for 2 weeks. Panel B: Number of melanoma nodules on each lung. Points: individual nodule number; long line in the middle: mean; short line on the top and bottom: 95% confidence intervals ** and ##: p<0.01. Panel C: Mouse body weight changes during the experiment. Points: means; bars: SD. Control: vehicle solution only.

[5] = tested on: pAKT/tAKT and pERK in A375RF21 cells; assay: Western blot analysis in A375RF21; format: cell-based, human
Method: (§2) At the indicated time treatment, human melanoma A375RF21, MDA-MB-435 or WM164 cells were collected to investigate relevant cascade protein or apoptosis markers by western blots. Total protein was extracted by lysing cells with RIPA buffer (Sigma-Aldrich, St. Louis, Mo.) containing phosphatase-proteinase inhibitor cocktail (Sigma-Aldrich, St. Louis, Mo.). General protein concentration was then determined by BCA method using kit (Sigma-Aldrich, St. Louis, Mo.). The cell lysates were diluted to equal general protein concentration using Laemmli loading buffer (Bio-Rad, Hercules, Calif.) and boiled for 5 min to denature the protein. Then group samples containing 10 μg general proteins were loaded to each well of 4-15% Tris-HCl pre-cast polyacrylamide gel (Bio-Rad, Hercules, Calif.) for electrophoresis and subsequently transferred to 0.2 μm nitrocellulose membrane (Bio-Rad, Hercules, Calif.). […] Target proteins were detected by incubating with 1× LumiGLO® reagent (Cell Signaling, #7003) for one minute and exposed to x-ray film. The films were scanned with grey scale and lane intensities were quantified with the ImageJ software (NIH, Bethesda, Md., USA).

pAKT/tAKT in WM164 cells = assay: Western blot analysis in WM164; format: cell-based, human; details: WM164, 48 h
Method: as §2

Bovine brain tubulin [6] = biological target: T1, Bovine brain tubulin (Bos taurus, UniProt P81947+Q6B856); assay: In vitro microtubule polymerization assay (Example 6); format: biochemical; details: absorbance at 340 nm, 15 min; for inhibition of tubulin polymerization: 10 μM
T1 construct: purchased Cytoskeleton, Denver, Colo; host or cells: brain tissue
Method: The absorbance at 340 nm was monitored every 1 min for 15 min by the SYNERGY 4 Microplate Reader (Bio-Tek Instruments, Winooski, Vt.). The spectrophotometer was set at 37° C. for tubulin polymerization.

[7] = tested on: pAKT/tAKT in MDA-MB-435 cells; assay: Western blot analysis in MDA-MB-435; format: cell-based, human; details: MDA-MB-435, 48 h
Method: as §2

[8] = tested on: A375 human melanoma xenograft; details: 12da 25 mg/kg; Wang Z et al., Pharm. Res. 29(11); cited from earlier work
OVCAR-8 = assay: In vitro growth inhibition, OVCAR-8; format: cell-based; details: Homo sapiens, OVCAR-8; Table 9; read-out: IC50 ± SEM (nM) OVCAR-8
A375RF21 = assay: In vitro combination assay (combination index) in A375RF21; format: cell-based, human; details: combination with vemurafenib
NCl/ADR-RES = assay: In vitro growth inhibition, NCI/ADR-RES; format: cell-based; details: Homo sapiens, Table 9, read-out: IC50 ± SEM (nM) NCl/ADR-RES
[9] = tested on: three melanoma cell lines and four human prostate cancer cell lines; assay: Antiproliferative activity, average over melanoma and prostate cancer cell lines; format: cell-based; details: for IC50: Homo sapiens, discussion of Tables 8-10
Du 145 = assay: Cell culture cytotoxicity (SRB) assay, Du 145; details: read-out: inhibitory effects DU145; Table 10B, anti-proliferation
Bovine brain tubulin [10] = assay: HTS-tubulin polymerization assay (Example 1); details: 20 μM, purified-protein assay
A375 cells [11] = assay: Cell cycle analysis (flow cytometry) in A375; format: cell-based, human
Method: as §1

A375 cells [12] = assay: Cell proliferation MTS assay, parental A375; details: Homo sapiens, A-375, read-out: IC50 for proliferation inhibition
A375RF21 cells [13] = assay: Cell proliferation MTS assay, vemurafenib-resistant A375RF21
A375 = assay: Cell culture cytotoxicity (SRB) assay, A375; format: cell-based, human; details: Table 9, SRB, 48 h; read-out: IC50 ± SEM (nM) A375

T1 sequence (P81947 whole entry): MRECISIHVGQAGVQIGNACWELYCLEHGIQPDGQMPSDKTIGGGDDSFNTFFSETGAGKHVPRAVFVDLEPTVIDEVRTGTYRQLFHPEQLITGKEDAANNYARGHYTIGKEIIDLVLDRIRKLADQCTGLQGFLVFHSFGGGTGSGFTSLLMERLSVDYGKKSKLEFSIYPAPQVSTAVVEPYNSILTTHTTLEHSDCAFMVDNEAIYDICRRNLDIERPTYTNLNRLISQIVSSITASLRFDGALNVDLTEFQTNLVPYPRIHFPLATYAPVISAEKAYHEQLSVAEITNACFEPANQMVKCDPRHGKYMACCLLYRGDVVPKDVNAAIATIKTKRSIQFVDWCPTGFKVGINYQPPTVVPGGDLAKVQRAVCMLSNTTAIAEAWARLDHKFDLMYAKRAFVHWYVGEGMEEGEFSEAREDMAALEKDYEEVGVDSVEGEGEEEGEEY
T1 sequence (Q6B856 whole entry): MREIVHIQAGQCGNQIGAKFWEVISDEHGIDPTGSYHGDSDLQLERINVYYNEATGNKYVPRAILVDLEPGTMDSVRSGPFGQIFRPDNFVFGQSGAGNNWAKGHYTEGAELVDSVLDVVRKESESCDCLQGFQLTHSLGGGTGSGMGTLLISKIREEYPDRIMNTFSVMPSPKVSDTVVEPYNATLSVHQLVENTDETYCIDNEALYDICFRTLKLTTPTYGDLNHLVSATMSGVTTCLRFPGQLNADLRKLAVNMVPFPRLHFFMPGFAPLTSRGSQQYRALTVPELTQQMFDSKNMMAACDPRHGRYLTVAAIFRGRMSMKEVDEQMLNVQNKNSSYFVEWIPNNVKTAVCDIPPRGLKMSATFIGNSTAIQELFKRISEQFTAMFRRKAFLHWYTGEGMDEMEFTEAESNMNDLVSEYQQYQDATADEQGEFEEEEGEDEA

SMILES: CC(=O)O[C@@]12CO[C@@H]1C[C@H](O)[C@@]1(C)C(=O)[C@H](O)C3=C(C)[C@@H](OC(=O)[C@H](O)[C@@H](NC(=O)OC(C)(C)C)c4ccccc4)C[C@@](O)([C@@H](OC(=O)c4ccccc4)[C@H]21)C3(C)C [Docetaxel, reference compound]
Tumor size, End (PC-3/TxR tumors; IV 10 mpk): 1774 ± 183 mm^3
Tumor size, Start (PC-3/TxR tumors; IV 10 mpk): 143 ± 20 mm^3
Tumor size, End (PC-3/TxR tumors; IV 20 mpk): 999 ± 905 mm^3
Tumor size, Start (PC-3/TxR tumors; IV 20 mpk): 170 ± 86 mm^3
induction of cell apoptosis (DNA-histone complexes) (PC-3): highly potent to induce apoptosis
induction of cell apoptosis (DNA-histone complexes) (PC-3/TxR): weaker
Body weight, End (PC-3 tumors; IV 10 mpk): 24 ± 2 g
Body weight, End (PC-3 tumors; IV 20 mpk): 24 ± 3 g
G2/M arrest (A375RF21 cells [1]; 24 h): induced G2/M arrest
cell apoptosis or death (sum of Q1, Q2 and Q4) (A375RF21 cells [2]): 6.4±3.0%

SMILES: O=C(c1ccc(F)cc1)c1c[nH]c(-c2ccc(Cl)cc2)n1 [12fb, (2-(4-chlorophenyl)-1H-imidazol-4-yl)(4-fluorophenyl)methanone]
inhibition of colony formation (B16-F1 melanoma cells; 100 nM): effective inhibition
tolerability [3]: well tolerated dose
inhibition of metastasis of melanoma to the lungs [4]: inhibition

SMILES: COc1cc(C(=O)c2c[nH]c(-c3ccc(C)cc3)n2)cc(OC)c1OC [12da, (2-(p-tolyl)-1H-imidazol-4-yl)(3,4,5-trimethoxyphenyl)methanone]
effect on pERK or total ERK level ([5]; A375RF21, 48 h incubation): no obvious effect
inhibition of colony formation (B16-F1 melanoma cells; 20 nM): effectively inhibited
pAKT/tAKT inhibition (pAKT/tAKT in WM164 cells): strong dose-dependent pAKT/tAKT inhibition effects
inhibition of tubulin polymerization (Bovine brain tubulin [6]): inhibited tubulin polymerization
pAKT/tAKT inhibition [7]: strong dose-dependent pAKT/tAKT inhibition effects
suppression of parental A375 melanoma tumor growth in vivo [8]: effective
IC50 (OVCAR-8): 47 nM
G2/M arrest (A375RF21 cells [1]; 24 h): induced G2/M arrest
calculated CI values, all concentrations tested (A375RF21): 0.53-0.70
inhibition of metastasis of melanoma to the lungs [4]: inhibition
IC50 (NCl/ADR-RES): 19 nM

inhibition of tubulin polymerization (Bovine brain tubulin [6]): inhibited tubulin polymerization
SMILES: Cc1ccc(-c2nc(C(=O)c3ccc(F)cc3)c[nH]2)cc1 [12db, (4-fluorophenyl)(2-(p-tolyl)-1H-imidazol-4-yl)methanone]

IC50 [9]: 1000 to 50000 nM
SMILES: COc1cc(C(=O)c2c[nH]c(-c3cc(OC)c(OC)c(OC)c3)n2)cc(OC)c1OC [12ea, (3,4,5-trimethoxyphenyl)(2-(3,4,5-trimethoxyphenyl)-1H-imidazol-4-yl)methanone]

SMILES: COc1ccc(C(=O)c2nc(-c3cc(OC)c(OC)c(OC)c3)c[nH]2)cc1 [70y]
IC50 (Du 145): > 50000 nM

SMILES: O=C(c1ccc(F)cc1)c1c[nH]c(-c2ccc(OCc3ccccc3)cc2)n1 [12jb, (2-(4-(benzyloxy)phenyl)-1H-imidazol-4-yl)(4-fluorophenyl)methanone]
fold increase in activity compared with the para-hydroxy compound 12kb ([9]; discussion of Table 9): 440 fold

SMILES: CCCS(=O)(=O)Nc1ccc(F)c(C(=O)c2c[nH]c3ncc(-c4ccc(Cl)cc4)cc23)c1F [Vemurafenib]
effect on tubulin polymerization (Bovine brain tubulin [10]): did not significantly influence tubulin polymerization
effect on tubulin polymerization (Bovine brain tubulin [10]; listed as vemurafenib): did not have any effect on tubulin polymerization
G0/G1 arrest (A375 cells [11]; A375, 1 μM, 24 h): effectively arrested
concentration needed to produce G0/G1 cell cycle arrest (A375 cells [11]; parental A375, single agent): less than 1 μM
level of pAKT relative to tAKT ([5]; A375RF21, 48 h, quantified lane density): 70%
IC50 (A375 cells [12]): 570 ± 30 nM
G0/G1 arrest (A375RF21 cells [1]; A375RF21, 1 μM, 24 h): could not arrest
concentration needed to produce G0/G1 cell cycle arrest (A375RF21 cells [1]; resistant A375RF21, single agent): ≥ 30 µM
IC50 (A375RF21 cells [13]; Homo sapiens, read-out: IC50 for proliferation inhibition): 28900 ± 600 nM
fold increase of IC50 in A375RF21 versus parental A375 (A375RF21 cells [13]; MTS assay): over 50 fold
cell apoptosis or death (sum of Q1, Q2 and Q4) (A375RF21 cells [2]): 11.9±3.5%

SMILES: COc1ccc(-c2nc(C(=O)c3ccc(F)cc3)c[nH]2)cc1 [12cb, (4-fluorophenyl)(2-(4-methoxyphenyl)-1H-imidazol-4-yl)methanone]
inhibition of colony formation (B16-F1 melanoma cells; 20 nM): effectively inhibited
inhibition of tubulin polymerization (Bovine brain tubulin [6]): inhibited tubulin polymerization
inhibition at 10 µM (Bovine brain tubulin [6]): ~80%
inhibition of metastasis of melanoma to the lungs [4]: inhibition

IC50 [9]: 1000 to 50000 nM
SMILES: O=C(c1ccc(F)cc1)c1c[nH]c(-c2ccccc2C(F)(F)F)n1 [12ib, (4-fluorophenyl)(2-(2-(trifluoromethyl)phenyl)-1H-imidazol-4-yl)methanone]

SMILES: COc1cc(C(=O)c2c[nH]c(-c3ccc(O)cc3)n2)cc(O)c1OC [12kc]
IC50 (A375): 10000 nM
